“And” between values parts separate entries of the source, which are not always exact repeats. Equal entries are not always repeated.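 Dose response: 5 concentrations. Exposure: 48 h. Format: 96-well plates. Endpoint: linear interpolation; highest concentration if not reached. GI50 marks 50% less growth. TGI: total growth inhibition.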

Some test systems named below: DU-145 prostate; NCI-H522 lung; PC-3 prostate; EKVX NSCLC; SF-268 CNS; UO-31 renal; HCT-15 colon; SNB-19 CNS; OVCAR-5 ovarian; SF-539 CNS; KM12 colon.
Assay in all cases: DTP human tumour cell line panel, 48 h

In the case of `C#CC(O)Cc1ccc(OC)c2occc12` (stereo not given), the TGI in the test with DU-145 prostate, in the test with NCI-H522 lung, with PC-3 prostate, in the test with EKVX NSCLC, in the test with SF-268 CNS and in the test with UO-31 renal was more than 100 µM in each case. The TGI with HCT-15 colon, in the test with SNB-19 CNS, with OVCAR-5 ovarian, in the test with SF-539 CNS and in the test on KM12 colon was more than 100 µM throughout.
On to `CC(=O)NC1C(OCc2ccccc2)OC(CO)C(O)C1OCC(=O)N1CCCC1C(=O)NC(CCC(=O)NCCCCCNc1c2ccccc2nc2cccc([N+](=O)[O-])c12)C(N)=O` (stereo not given), for which the TGI (in general, the concentration giving total growth inhibition) in the test with DU-145 prostate stood at 0.107 µM; with NCI-H522 lung, 0.25 µM; with PC-3 prostate it was 0.0293 µM; in the test on EKVX NSCLC it was 0.633 µM; with SF-268 CNS, 0.0966 µM; in the test on UO-31 renal, 0.115 µM. Further, the TGI was determined as 0.0906 µM with HCT-15 colon; 0.493 µM with SNB-19 CNS; 0.06 µM with OVCAR-5 ovarian; 0.097 µM in the test with SF-539 CNS; 0.13 µM in the test on KM12 colon.
Take `S=C(Nc1cccc(C2(N3CCCCC3)CCCCC2)c1)Nc1cccc(C2(N3CCCCC3)CCCCC2)c1`: the total growth inhibition concentration (TGI) was 80.8 µM in the test with DU-145 prostate; 41 µM in the test on NCI-H522 lung; more than 100 µM in the test on PC-3 prostate; more than 100 µM in the test on EKVX NSCLC; more than 100 µM in the test on SF-268 CNS; 31.5 µM in the test on UO-31 renal. Moreover, the TGI with HCT-15 colon was more than 100 µM; in the test with SNB-19 CNS it was more than 100 µM; in the test on OVCAR-5 ovarian, more than 100 µM; with SF-539 CNS, 31.3 µM; in the test with KM12 colon, 33.2 µM.
Consider `CC1=C(C)C(=O)C(C2=C(C3=CC(=O)C(C)=C(C)C3=O)C(=O)c3ccccc3C2=O)=CC1=O`, for which the TGI in the test with DU-145 prostate was determined as 8.06 µM; in the test on NCI-H522 lung it was 5.49 µM; in the test with PC-3 prostate, 7.83 µM; in the test with EKVX NSCLC, 5.81 µM; in the test with SF-268 CNS, 17.5 µM; in the test with UO-31 renal, 4.95 µM. Further, the concentration for total growth inhibition (TGI) with HCT-15 colon was 5.53 µM; in the test with SNB-19 CNS it was 25.8 µM; in the test on OVCAR-5 ovarian, 32.2 µM; with SF-539 CNS, 10.5 µM; in the test with KM12 colon, 11.1 µM.
As to `CC(C)(CN)SCc1ccccc1`, the TGI in the test with DU-145 prostate, in the test with NCI-H522 lung, in the test on PC-3 prostate, with EKVX NSCLC, in the test with SF-268 CNS and with UO-31 renal was more than 100 µM each time. In addition, the TGI in the test on HCT-15 colon, in the test on SNB-19 CNS, in the test on OVCAR-5 ovarian, in the test with SF-539 CNS and with KM12 colon was more than 100 µM each time.
Consider `Cc1cc(C(O)CNC(C)CCn2cnc3c2c(=O)n(C)c(=O)n3C)ccc1O` (stereo not given), for which the total growth inhibition concentration (TGI) in the test with DU-145 prostate, in the test on NCI-H522 lung, in the test with PC-3 prostate, with EKVX NSCLC, in the test with SF-268 CNS and in the test with UO-31 renal was more than 100 µM in each case. Moreover, the concentration for total growth inhibition (TGI) in the test on HCT-15 colon, with SNB-19 CNS, in the test with OVCAR-5 ovarian, with SF-539 CNS and in the test with KM12 colon was more than 100 µM each time.
Take `CCN(CC)CCC(=O)O[C@H]1CC[C@H](CC(C)[C@H]2CC(=O)C(C)C=C(C)[C@H](OC(=O)CCN(CC)CC)C(OC)C(=O)[C@@H](C)CC(C)/C=C/C=C/C=C(C)C(OC)CC3CC[C@H](C)[C@](O)(O3)C(=O)C(=O)N3CCCCC3C(=O)O2)CC1OC` (stereo not given in full): the GI50 (in general, the concentration that inhibits growth by half) in the test with DU-145 prostate was 1.17 µM; in the test with NCI-H522 lung, 0.017 µM; in the test with PC-3 prostate it was 1.22 µM; in the test with EKVX NSCLC, 0.00704 µM; in the test on SF-268 CNS, 1.16 µM; in the test on UO-31 renal, 0.00067 µM and 0.00513 µM. Further, the GI50 was 0.0922 µM in the test on HCT-15 colon, 0.0358 µM in the test with SNB-19 CNS and 1.63 µM with OVCAR-5 ovarian. Further, the total growth inhibition concentration (TGI) with DU-145 prostate was > 10 µM and 8.38 µM; with NCI-H522 lung, 1.98 µM and 1.89 µM; with PC-3 prostate it was 2.57 µM and 2.4 µM; in the test with EKVX NSCLC, more than 10 µM; with SF-268 CNS it was 3.06 µM and 3.99 µM; in the test on UO-31 renal it was 3.08 µM and 1.51 µM. For the same compound, the TGI was 4.46 µM and 3.84 µM with HCT-15 colon; 7.68 µM and 2.24 µM in the test on SNB-19 CNS; 8.16 µM and 7.73 µM with OVCAR-5 ovarian; 1.99 µM and 1.81 µM in the test on SF-539 CNS; > 10 µM and 2.03 µM in the test on KM12 colon.
Take `CC(C)(C)N=c1n(C(C)(C)C)oc(=O)n1-c1ccccc1`: the concentration for total growth inhibition (TGI) in the test with DU-145 prostate, in the test with NCI-H522 lung, with PC-3 prostate, in the test with EKVX NSCLC, in the test on SF-268 CNS and in the test on UO-31 renal was more than 50 µM in each case. The TGI in the test on HCT-15 colon, in the test with SNB-19 CNS, in the test with OVCAR-5 ovarian, in the test on SF-539 CNS and with KM12 colon was more than 50 µM each time.
Regarding `CC/C=C/C(/C=C/C[C@]1(CC)C[C@H](CC)[C@H](CC(=O)O)OO1)CC` (stereo not given in full), the TGI in the test on DU-145 prostate was determined as 4.36 µM; in the test on NCI-H522 lung it was 3.44 µM; with PC-3 prostate, 3.69 µM; in the test on EKVX NSCLC, 3.77 µM; with SF-268 CNS, 9.57 µM; in the test on UO-31 renal it was 0.947 µM. The TGI with HCT-15 colon is 8.97 µM; in the test with SNB-19 CNS, 12 µM; in the test with OVCAR-5 ovarian, 7.61 µM; in the test on SF-539 CNS it was 4.07 µM; with KM12 colon, 3.68 µM.
Take `COc1cccc(C(=O)N[C@@H]2[C@H](O)[C@@H](CO)O[C@H]2n2cnc3c(N)ncnc32)c1`: the total growth inhibition concentration (TGI) in the test with DU-145 prostate, in the test on NCI-H522 lung, in the test with PC-3 prostate, in the test on EKVX NSCLC, in the test with SF-268 CNS and with UO-31 renal was more than 100 µM each time. The TGI in the test with HCT-15 colon, in the test on SNB-19 CNS, with OVCAR-5 ovarian, in the test on SF-539 CNS and with KM12 colon was more than 100 µM each time.
For the compound `O=C(Nc1ccc(S(=O)(=O)Nc2ncccn2)cc1)c1c2ccccc2nc2ccccc12`, the concentration for total growth inhibition (TGI) in the test on DU-145 prostate, in the test with NCI-H522 lung, in the test on PC-3 prostate, in the test with EKVX NSCLC, in the test on SF-268 CNS and in the test on UO-31 renal was more than 100 µM throughout. For the same compound, the TGI with HCT-15 colon, with SNB-19 CNS, in the test with OVCAR-5 ovarian, with SF-539 CNS and in the test on KM12 colon was more than 100 µM throughout.

For the origin of these results see PubChem BioAssay (NCI).
